Patent US7645763B2, “8-[3-amino-piperidin-1-yl]-xanthines, their preparation and their use as pharmaceutical composition” (Boehringer Ingelheim Pharma GmbH & Co. KG, priority 2004, dated 2010)

target: T1, DPP-IV (Homo sapiens, UniProt P27487); assay: DPP-IV assay with Caco-2 cell extract as DPP IV source; assay type: biochemical; settings: extract of human colon carcinoma cell line Caco-2 as DPP IV source; AFC substrate 100 μM; 60 minutes at ambient temperature; 11-point curves; read-out: DPP IV inhibition IC50
T1 construct: an extract of the human colon carcinoma cell line Caco-2 is used as the DPP IV source; endogenous in cells; host or cells: Caco-2 (human colon carcinoma), differentiated to induce DPP-IV expression; Nonidet-P40 solubilized extract
T1 sequence (P27487 whole entry): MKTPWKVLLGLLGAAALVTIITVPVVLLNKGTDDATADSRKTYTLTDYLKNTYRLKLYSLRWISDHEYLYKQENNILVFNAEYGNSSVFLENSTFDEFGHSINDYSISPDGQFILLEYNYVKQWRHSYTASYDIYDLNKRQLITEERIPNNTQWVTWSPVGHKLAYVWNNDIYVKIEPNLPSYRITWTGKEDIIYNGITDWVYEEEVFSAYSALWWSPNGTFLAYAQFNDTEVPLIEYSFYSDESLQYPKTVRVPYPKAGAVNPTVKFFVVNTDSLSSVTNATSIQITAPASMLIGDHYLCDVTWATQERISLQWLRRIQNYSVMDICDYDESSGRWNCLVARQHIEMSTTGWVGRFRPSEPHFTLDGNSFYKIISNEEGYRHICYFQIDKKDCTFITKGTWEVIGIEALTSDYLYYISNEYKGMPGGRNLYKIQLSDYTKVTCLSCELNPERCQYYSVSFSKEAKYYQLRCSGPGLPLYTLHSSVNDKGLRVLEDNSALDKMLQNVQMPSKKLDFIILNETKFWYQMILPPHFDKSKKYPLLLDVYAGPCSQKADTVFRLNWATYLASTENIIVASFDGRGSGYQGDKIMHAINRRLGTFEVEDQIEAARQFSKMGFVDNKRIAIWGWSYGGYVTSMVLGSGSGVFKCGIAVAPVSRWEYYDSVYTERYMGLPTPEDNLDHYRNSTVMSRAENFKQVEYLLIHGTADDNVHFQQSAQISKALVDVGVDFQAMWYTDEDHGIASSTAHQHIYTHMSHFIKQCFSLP
Experimental: The differentiation of the cells in order to induce the DPP-IV expression was carried out in accordance with the description by Reiher et al. in an article entitled “Increased expression of intestinal cell line Caco-2” that appeared in Proc. Natl. Acad. Sci. Vol. 90, pp. 5757-5761 (1993). The cell extract was obtained from cells solubilized in a buffer (10 mM Tris HCl, 0.15 M NaCl, 0.04 t.i.u. aprotinin, 0.5% Nonidet-P40, pH 8.0) by centrifugation at 35,000 g for 30 minutes at 4° C. (to remove cell debris).
The DPP-IV assay was carried out as follows:
50 μl of substrate solution (AFC; AFC is amido-4-trifluoromethylcoumarin), final concentration 100 μM, was placed in black microtitre plates. 20 μl of assay buffer (final concentrations 50 mM Tris HCl pH 7.8, 50 mM NaCl, 1% DMSO) was pipetted therein. The reaction was started by the addition of 30 μl of solubilized Caco-2 protein (final concentration 0.14 μg of protein per well). The test substances under investigation were typically added prediluted to 20 μl, while the volume of assay buffer was then reduced accordingly. The reaction was carried out at ambient temperature, the incubation period was 60 minutes. Then the fluorescence was measured in a Victor 1420 Multilabel Counter, with the excitation wavelength at 405 nm and the emission wavelength at 535 nm. Dummy values (corresponding to 0% activity) were obtained in mixtures with no Caco-2 protein (volume replaced by assay buffer), control values (corresponding to 100% activity) were obtained in mixtures without any added substance. The potency of the test substances in question, expressed as IC50 values, were calculated from dosage/activity curves consisting of 11 measured points in each case.

| IC50 | SMILES |
| --- | --- |
| 4 nM | CC#CCn1c(N2CCC[C@@H](N)C2)nc2c1c(=O)n(Cc1ccc3ncccc3n1)c(=O)n2-c1ccccc1 [1(13), 1-[([1,5]naphthyridin-2-yl)methyl]-3-phenyl-7-(2-butyn-1-yl)-8-((R)-3-amino-piperidin-1-yl)-xanthine] |
| 2.7 nM | CC#CCn1c(N2CCC[C@@H](N)C2)nc2c1c(=O)n(Cc1nc(C)c3ccccc3n1)c(=O)n2C1CC1 [1(1), 1-[(4-methyl-quinazolin-2-yl)methyl]-3-cyclopropyl-7-(2-butyn-1-yl)-8-((R)-3-amino-piperidin-1-yl)-xanthine] |
| 3.6 nM | CC#CCn1c(N2CCC[C@@H](N)C2)nc2c1c(=O)n(CC(=O)c1cccc3oc(=O)n(C)c13)c(=O)n2C1CC1 [Example 1, 1-[2-(3-Methyl-2-oxo-2,3-dihydro-benzoxazol-4-yl)-2-oxo-ethyl]-3-cyclopropyl-7-(2-butyn-1-yl)-8-((R)-3-amino-piperidin-1-yl)-xanthine] |
| 8.1 nM | CC#CCn1c(N2CCC[C@@H](N)C2)nc2c1c(=O)n(CC(=O)c1cccc(OC)c1)c(=O)n2-c1ccccc1 [1(10), 1-[2-(3-methoxy-phenyl)-2-oxo-ethyl]-3-phenyl-7-(2-butyn-1-yl)-8-((R)-3-amino-piperidin-1-yl)-xanthine] |

| SMILES | IC50 |
| --- | --- |
| CC#CCn1c(N2CCC[C@@H](N)C2)nc2c1c(=O)n(Cc1nc(C)c3ccccc3n1)c(=O)n2-c1ccccc1 [Example 1(8), 1-[(4-methyl-quinazolin-2-yl)methyl]-3-phenyl-7-(2-butyn-1-yl)-8-((R)-3-amino-piperidin-1-yl)-xanthine] | 4.9 nM |

tested on: not listed separately; assay: Tolerability in rats after oral administration; assay type: in vivo; settings: oral administration of 10 mg/kg

| SMILES | toxic side effects / tolerability |
| --- | --- |
| CC#CCn1c(N2CCC[C@@H](N)C2)nc2c1c(=O)n(Cc1nc(C)c3ccccc3n1)c(=O)n2-c1ccccc1 [Example 1(8), 1-[(4-methyl-quinazolin-2-yl)methyl]-3-phenyl-7-(2-butyn-1-yl)-8-((R)-3-amino-piperidin-1-yl)-xanthine] | no toxic side effects could be detected |
